Test results as given in US11541122B2, “Glucose sensitive insulins and uses thereof” (Ziylo Limited, priority 2018, dated 2023).
pKd: −log10 of the molar value.

Test: Glucose affinity of macrocycles by fluorescence titration
Type: binding
Conditions: pH 7.4, 10 mM phosphate buffer
Description: The optic properties (fluorescence) of the given macrocycle changes between the unbound state, and the glucose-bound state. Titrating the macrocycle with glucose in the relevant glucose concentration range, and measuring the changes in fluorescence of the system can thus give binding curves for binding to glucose, which can be used to determine the glucose binding constant, Ka (and the displacement constant, Kd).
All solutions were maintained at pH 7.4 using 10 mM Phosphate buffer solution. The titration was performed using a Horiba Scientific Duetta fluorescence spectrometer with an excitation wavelength of 310 nm and monitoring emission from 320-550 nm. The excitation and emission slit width/band widths were set to 5 nm. All points were acquired using a 0.5 second integration time and 5 accumulations.
2 mg of compound 6d (Mw=3540 g/mol) was dissolved in […] of ultrapure H2O (pH 7.4, 10 mM PB). The purity of Compound 6d was previously assayed by 1H NMR spectroscopy using a known concentration of DMF in D2O as an internal standard. The purity was calibrated at 80% (40 μM). This was then diluted by a four-fold to give a 10 μM solution of Compound 6d.
D-glucose (180.16 mg) was dissolved in 1 mL 10 mM PB and allowed to stand overnight to allow for equilibration of the a and 13 anomers. This was sequentially diluted to give a 20 mM stock solution of D-glucose. 250 μL of this solution was combined with 250 μL Compound 6d stock solution to give a 10 mM D-glucose/5 μM Compound 6d.
In a 3 mL cuvette, 1500 μL of Solution 1 was diluted with 1500 μL of 10 mM phosphate buffer to give a 5 μM solution. This was titrated with Solution 2. For each addition of titrant solution (Solution 2), the equivalent volume was removed from the cuvette prior to addition to keep the cell volume constant (3000 μL). Each addition was stirred for 1 minute then stirring stopped to allow 1 minute for the sample to equilibrate before acquisition. Additions (in μL): 0, 10, 10, 10, 10, 10, 20, 20, 50, 100, 100.

Row | pKd (measured similarly to compound 6d) | Kd (glucose), calculated as 1/Ka (D-glucose titration) [µM] | Calculated Ka (glucose binding constant, 1:1 binding model) (D-glucose titration, 5 μM macrocycle, excitation 310 nm) [M⁻¹] | Compound
1 | 3.88 | – | – | CCc1c2c(CC)c3c(CC)c1CNC(=O)Nc1ccc(C(=O)NC(CCC(=O)O)(CCC(=O)O)CCC(=O)O)cc1NC(=O)NCc1c(CC)c(c(CC)c(c1CC)CNC(=O)Nc1cc(C(=O)NC(CCC(=O)O)(CCC(=O)O)CCC(=O)O)ccc1NC(=O)NC3)CNC(=O)Nc1cc(C(=O)NCCOCCOCCOCCOCCN=[N+]=[N-])ccc1NC(=O)NC2 [compound 24, G1 Macrocycle PEG5 Azide]
2 | – | 68 | 14751.48 ± 637.3 | CCc1c2c(CC)c3c(CC)c1CNC(=O)Nc1ccc(C(=O)NC(CCC(=O)NC(CCC(=O)O)(CCC(=O)O)CCC(=O)O)(CCC(=O)NC(CCC(=O)O)(CCC(=O)O)CCC(=O)O)CCC(=O)NC(CCC(=O)O)(CCC(=O)O)CCC(=O)O)cc1NC(=O)NCc1c(CC)c(c(CC)c(c1CC)CNC(=O)Nc1cc(C(=O)NC(CCC(=O)NC(CCC(=O)O)(CCC(=O)O)CCC(=O)O)(CCC(=O)NC(CCC(=O)O)(CCC(=O)O)CCC(=O)O)CCC(=O)NC(CCC(=O)O)(CCC(=O)O)CCC(=O)O)ccc1NC(=O)NC3)CNC(=O)Nc1cc(C(=O)NCCOCCOCCOCCN=[N+]=[N-])ccc1NC(=O)NC2 [compound 6d]
